Measured values: PubChem BioAssay AID1259408 (Genetic Toxicology Data Bank (GENE-TOX), 2018)
Active and inactive are the calls of the source. No rule for the calls is given here.

System: GENE-TOX genotoxicity assays, various organisms and cells
Test: GENE-TOX mutagenicity studies
Settings: for call: Assay Type: In vivo carcinogenicity studies
[1] = Species/Cell Type: Salmonella typhimurium (one or more of the five standard strains: TA98, TA100, TA1535, TA1537, and TA1538), Assay Type: Histidine reverse gene mutation, Ames assay, Assay Code: SALT, Evaluation Type: Evaluation A (Pre-1980)
[2] = Species/Cell Type: Drosophila melanogaster, Assay Type: Sex-linked recessive lethal gene mutation, Assay Code: SRL+, Evaluation Type: Evaluation A (Pre-1980)
[3] = Species/Cell Type: Saccharomyces cerevisiae, Assay Type: Mitotic recombination or gene conversion, Assay Code: YEC+, Evaluation Type: Evaluation A (Pre-1980)
[4] = Species/Cell Type: Escherichia coli polA (W3119 vs P3478), Assay Type: Rec-assay, DNA effects (bacterial DNA repair), Assay Code: RE1+, Evaluation Type: Evaluation A (Pre-1980)
[5] = Species/Cell Type: Nonhuman, Assay Code: CCG+, Evaluation Type: Evaluation A (Pre-1980)
[6] = Species/Cell Type: Nonhuman, Assay Type: Sister-chromatid exchange (SCE) in vitro, Assay Code: SC2+D, Dose Response: With dose response, Evaluation Type: Evaluation B (Post-1980)
[7] = Species/Cell Type: Salmonella typhimurium (one or more of the five standard strains: TA98, TA100, TA1535, TA1537, and TA1538), Assay Type: Histidine reverse gene mutation, Ames assay, Assay Code: SAL+, Evaluation Type: Evaluation A (Pre-1980)
[8] = Species/Cell Type: Human, Assay Type: Sister-chromatid exchange (SCE) in vitro, Assay Code: SC1T, Evaluation Type: Evaluation B (Post-1980)
[9] = Species/Cell Type: Syrian hamster embryo (SHE) cells, Assay Type: Cell transformation, clonal assay, Assay Code: CTC+, Evaluation Type: Evaluation A (Pre-1980)
[10] = Species/Cell Type: Salmonella typhimurium (one or more of the five standard strains: TA98, TA100, TA1535, TA1537, and TA1538), Assay Type: Histidine reverse gene mutation, Ames assay, Assay Code: SAL+*, Activation: With metabolic activation, Evaluation Type: Evaluation A (Pre-1980)

Structure (SMILES): Clc1ccc2c(Cl)ccnc2c1
- mutagenic call [1]: no conclusion

Structure (SMILES): CN(C)N=Nc1c(Br)cc(Br)cc1Br
- mutagenic call [2]: active; positive
- mutagenic call [3]: active; positive

Structure (SMILES): CN(N=O)C(N)=O
- mutagenic call (Species/Cell Type: Allium cepa, Assay Type: Chromosome aberrations, Assay Code: ALC+D, Dose Response: With dose response, Evaluation Type: Evaluation A (Pre-1980)): active; positive
- mutagenic call (Species/Cell Type: Arabidopsis species, Assay Type: Gene mutation, Assay Code: ARM+D, Dose Response: With dose response, Evaluation Type: Evaluation A (Pre-1980)): active; positive
- mutagenic call (Species/Cell Type: Chinese hamster lung (V79) cells, Assay Type: Forward gene mutation at the HPRT or ouabain locus, Assay Code: V79+, Evaluation Type: Evaluation A (Pre-1980)): active; positive
- mutagenic call (Species/Cell Type: Chinese hamster ovary (CHO) cells, Assay Type: Forward gene mutation at the HPRT locus, Assay Code: CHO+D, Dose Response: With dose response, Evaluation Type: Evaluation A (Pre-1980)): active; positive
- mutagenic call (Species/Cell Type: Drosophila melanogaster, Assay Type: Aneuploidy, partial sex chromosome loss, chromosome aberrations, Assay Code: DAP+M, Evaluation Type: Evaluation A (Pre-1980)): active; positive
- mutagenic call (Species/Cell Type: Drosophila melanogaster, Assay Type: Aneuploidy, whole sex chromosome loss, chromosome aberrations, Assay Code: DAC+M, Evaluation Type: Evaluation A (Pre-1980)): active; positive
- mutagenic call [2]: active; positive
- mutagenic call (Species/Cell Type: Drosophila melanogaster, Sex: Male, Assay Type: Heritable translocation test, chromosome aberrations, Assay Code: DHT+, Evaluation Type: Evaluation A (Pre-1980)): active; positive
- mutagenic call (Species/Cell Type: Escherichia coli WP2, Assay Type: Tryptophan reverse gene mutation, Assay Code: WP2+, Evaluation Type: Evaluation A (Pre-1980)): active; positive
- mutagenic call (Species/Cell Type: Escherichia coli WP2 UVRA, Assay Type: Tryptophan reverse gene mutation, Assay Code: WPU+, Evaluation Type: Evaluation A (Pre-1980)): active; positive
- mutagenic call [4]: active; positive
- mutagenic call (Species/Cell Type: Glycine max (soybean), Assay Type: Gene mutation, Assay Code: GLM+, Evaluation Type: Evaluation A (Pre-1980)): active; positive
- mutagenic call (Species/Cell Type: Hordeum vulgare (barley), Assay Type: Chromosome aberrations, Assay Code: HOC+, Evaluation Type: Evaluation A (Pre-1980)): active; positive
- mutagenic call (Species/Cell Type: Hordeum vulgare (barley), Assay Type: Gene mutation, Assay Code: HOM+, Evaluation Type: Evaluation A (Pre-1980)): active; positive
- mutagenic call (Species/Cell Type: Human cell culture, Assay Type: Chromosome aberrations in vitro, Assay Code: CYZ+, Evaluation Type: Evaluation A (Pre-1980)): active; positive
- mutagenic call (Species/Cell Type: Human diploid fibroblasts, Assay Type: Unscheduled DNA synthesis (UDS) in vitro, DNA effects, Assay Code: UDH+, Evaluation Type: Evaluation A (Pre-1980)): active; positive
- mutagenic call (Species/Cell Type: Human lymphocytes, Assay Type: Sister-chromatid exchange (SCE) in vitro, Assay Code: SCL+D, Dose Response: With dose response, Evaluation Type: Evaluation B (Post-1980)): active; positive
- mutagenic call (Species/Cell Type: Human, Assay Type: Sister-chromatid exchange (SCE) in vitro, Assay Code: SC1+D, Dose Response: With dose response, Evaluation Type: Evaluation B (Post-1980)): active; positive
- mutagenic call (Species/Cell Type: Mammalian polychromatic erythrocytes, Assay Type: Micronucleus test, chromosome aberrations, Assay Code: MNTT, Evaluation Type: Evaluation A (Pre-1980)): no conclusion
- mutagenic call (Species/Cell Type: Mouse germ cells, Sex: Male, Assay Type: Unscheduled DNA synthesis (UDS) in vivo, DNA effects, Assay Code: UDT+, Evaluation Type: Evaluation A (Pre-1980)): active; positive
- mutagenic call (Species/Cell Type: Mouse, Sex: Male, Assay Type: Sperm morphology, Assay Code: SPI+, Evaluation Type: Evaluation A (Pre-1980)): active; positive
- mutagenic call (Species/Cell Type: Neurospora crassa, Assay Type: Forward gene mutation, Assay Code: NEF+, Evaluation Type: Evaluation A (Pre-1980)): active; positive
- mutagenic call (Species/Cell Type: Neurospora crassa, Assay Type: Reverse gene mutation, Assay Code: NER+, Evaluation Type: Evaluation A (Pre-1980)): active; positive
- call [5]: active; positive
- mutagenic call (Species/Cell Type: Nonhuman, Assay Type: Sister-chromatid exchange (SCE) in vitro, Assay Code: SC2+, Evaluation Type: Evaluation A (Pre-1980)): active; positive
- mutagenic call [6]: active; positive
- mutagenic call (Species/Cell Type: Nonhuman, Assay Type: Sister-chromatid exchange (SCE) in vivo, Assay Code: SC3+D, Dose Response: With dose response, Evaluation Type: Evaluation B (Post-1980)): active; positive
- mutagenic call (Species/Cell Type: Rat primary hepatocytes, Assay Type: Unscheduled DNA synthesis (UDS) in vitro, DNA effects, Assay Code: UDP+, Evaluation Type: Evaluation A (Pre-1980)): active; positive
- mutagenic call (Species/Cell Type: Rodents, Sex: Male, Assay Type: Dominant lethal test, Assay Code: DLT-, Evaluation Type: Evaluation A (Pre-1980)): inactive; negative
- mutagenic call (Species/Cell Type: Saccharomyces cerevisiae, Assay Type: Aneuploidy, chromosome aberrations, Assay Code: YEN+, Evaluation Type: Evaluation A (Pre-1980)): active; positive
- mutagenic call [3]: active; positive
- mutagenic call (Species/Cell Type: Saccharomyces cerevisiae, Assay Type: Reverse gene mutation, Assay Code: YER+, Evaluation Type: Evaluation A (Pre-1980)): active; positive
- mutagenic call [7]: active; positive
- mutagenic call (Species/Cell Type: Salmonella typhimurium, Escherichia coli, Serratia marcesens, Assay Type: Forward and reverse gene mutation, host-mediated assay, Assay Code: HMN+, Evaluation Type: Evaluation A (Pre-1980)): active; positive
- mutagenic call (Species/Cell Type: Vicia faba, Assay Type: Chromosome aberrations, Assay Code: VIC+, Evaluation Type: Evaluation A (Pre-1980)): active; positive
- mutagenic call (Species/Cell Type: Zea mays (corn), Assay Type: Gene mutation, Assay Code: ZEM+D, Dose Response: With dose response, Evaluation Type: Evaluation A (Pre-1980)): active; positive

Structure (SMILES): CCCN(CCC)S(=O)(=O)c1ccc(C(=O)O)cc1
- mutagenic call (Species/Cell Type: Saccharomyces cerevisiae, Assay Type: Mitotic recombination or gene conversion, Assay Code: YEC-*, Activation: With metabolic activation, Evaluation Type: Evaluation A (Pre-1980)): inactive; negative

Structure (SMILES): N[C@@H](CCC(=O)N[C@@H](CS)C(=O)NCC(=O)O)C(=O)O
- mutagenic call (Species/Cell Type: Human lymphocytes, Assay Type: Sister-chromatid exchange (SCE) in vitro, Assay Code: SCLT, Evaluation Type: Evaluation B (Post-1980)): no conclusion
- mutagenic call [8]: no conclusion
- mutagenic call [6]: active; positive

Structure (SMILES): O=C1CCC(=O)O1
- mutagenic call (Species/Cell Type: Escherichia coli polA (W3110 vs P3478), Assay Type: Rec-assay, DNA effects (bacterial DNA repair), Assay Code: RE2-, Evaluation Type: Evaluation A (Pre-1980)): inactive; negative
- mutagenic call (Species/Cell Type: Escherichia coli polA (W3119 vs P3478), Assay Type: Rec-assay, DNA effects (bacterial DNA repair), Assay Code: RE1-, Evaluation Type: Evaluation A (Pre-1980)): inactive; negative
- mutagenic call (Species/Cell Type: Mouse lymphoma (L5178Y) cells, Assay Type: Forward gene mutation at the thymidine kinase (TK) locus, chromosome aberrations, Assay Code: L51-, Evaluation Type: Evaluation A (Pre-1980)): inactive; negative
- call (Species/Cell Type: Nonhuman, Assay Code: CCG+L, Evaluation Type: Evaluation A (Pre-1980)): active; positive
- mutagenic call (Species/Cell Type: Saccharomyces cerevisiae, Assay Type: Mitotic recombination or gene conversion, Assay Code: YEH-, Evaluation Type: Evaluation A (Pre-1980)): inactive; negative
- mutagenic call (Species/Cell Type: Salmonella typhimurium (one or more of the five standard strains: TA98, TA100, TA1535, TA1537, and TA1538), Assay Type: Histidine reverse gene mutation, Ames assay, Assay Code: SAL-, Evaluation Type: Evaluation A (Pre-1980)): inactive; negative
- mutagenic call (Species/Cell Type: Salmonella typhimurium, Assay Type: Forward and reverse gene mutation, host-mediated assay, Assay Code: HMA-, Evaluation Type: Evaluation A (Pre-1980)): inactive; negative
- mutagenic call [9]: active; positive

Structure (SMILES): c1ccc2c(c1)-c1ccc3ccc4cccc5cc-2c1c3c45
- call [5]: active; positive

Structure (SMILES): CC(C)(O)CCc1ccc(O)c2c(=O)c3c(O)c4c(cc3oc12)O[C@H]1OC=C[C@@]41O
- mutagenic call [10]: active; positive

Structure (SMILES): Cc1cc(C)c(C)c(OC(=O)N(C)N=O)c1
- mutagenic call [7]: active; positive

Structure (SMILES): ClC/C=C/CCl
- mutagenic call [2]: active; positive

Structure (SMILES): CCc1cc(C(N)=S)ccn1
- mutagenic call [8]: no conclusion

Structure (SMILES): CI
- mutagenic call [4]: active; positive
- mutagenic call (Species/Cell Type: Mouse lymphoma (L5178Y) cells, Assay Type: Forward gene mutation at the thymidine kinase (TK) locus, chromosome aberrations, Assay Code: L51+, Evaluation Type: Evaluation A (Pre-1980)): active; positive
- call [5]: active; positive
- mutagenic call (Species/Cell Type: Saccharomyces cerevisiae, Assay Type: Mitotic recombination or gene conversion, Assay Code: YEH+, Evaluation Type: Evaluation A (Pre-1980)): active; positive
- mutagenic call [9]: active; positive

Structure (SMILES): O=[N+]([O-])c1ccccc1O
- mutagenic call (Species/Cell Type: Allium cepa, Assay Type: Chromosome aberrations, Assay Code: ALC-, Evaluation Type: Evaluation A (Pre-1980)): inactive; negative

Structure (SMILES): CN1CCC(=C2c3ccccc3C3OC3c3ccccc32)CC1 (stereo not drawn)
- mutagenic call [1]: no conclusion

Structure (SMILES): O=C1c2ccccc2C(=O)c2c1ccc(O[C@@H]1O[C@H](CO)[C@@H](O)[C@H](O)[C@H]1O)c2O
- mutagenic call [10]: active; positive

Structure (SMILES): CN(N=O)C(=O)Nc1ccc(F)cc1
- mutagenic call [6]: active; positive

Structure (SMILES): O=[N+]([O-])c1cccc2ccccc12
- call (Species/Cell Type: Nonhuman, Assay Code: CCG-, Evaluation Type: Evaluation A (Pre-1980)): inactive; negative

Structure (SMILES): c1ccc2c(c1)ncn2CN1CCCCC1
- mutagenic call (Species/Cell Type: Arabidopsis species, Assay Type: Gene mutation, Assay Code: ARM-, Evaluation Type: Evaluation A (Pre-1980)): inactive; negative

Structure (SMILES): CC1CN(N=O)CC(C)O1 (stereo not drawn)
- mutagenic call [10]: active; positive
